Patent publication US20120270237A9, “METHODS FOR THE IDENTIFICATION OF KINASE INTERACTING MOLECULES AND FOR THE PURIFICATION OF KINASE PROTEINS” (Cellzone AG, priority 2009, published 2012)

What was measured:
[1] = biological target: T1, PKD2 (Homo sapiens, UniProt Q9BZL6); assay: Kinobeads competition binding, HL60 cell lysate; design: endogenous in cells; host or cells: HL60; conditions: 10 μM free compound
T1 sequence (Q9BZL6 1-878): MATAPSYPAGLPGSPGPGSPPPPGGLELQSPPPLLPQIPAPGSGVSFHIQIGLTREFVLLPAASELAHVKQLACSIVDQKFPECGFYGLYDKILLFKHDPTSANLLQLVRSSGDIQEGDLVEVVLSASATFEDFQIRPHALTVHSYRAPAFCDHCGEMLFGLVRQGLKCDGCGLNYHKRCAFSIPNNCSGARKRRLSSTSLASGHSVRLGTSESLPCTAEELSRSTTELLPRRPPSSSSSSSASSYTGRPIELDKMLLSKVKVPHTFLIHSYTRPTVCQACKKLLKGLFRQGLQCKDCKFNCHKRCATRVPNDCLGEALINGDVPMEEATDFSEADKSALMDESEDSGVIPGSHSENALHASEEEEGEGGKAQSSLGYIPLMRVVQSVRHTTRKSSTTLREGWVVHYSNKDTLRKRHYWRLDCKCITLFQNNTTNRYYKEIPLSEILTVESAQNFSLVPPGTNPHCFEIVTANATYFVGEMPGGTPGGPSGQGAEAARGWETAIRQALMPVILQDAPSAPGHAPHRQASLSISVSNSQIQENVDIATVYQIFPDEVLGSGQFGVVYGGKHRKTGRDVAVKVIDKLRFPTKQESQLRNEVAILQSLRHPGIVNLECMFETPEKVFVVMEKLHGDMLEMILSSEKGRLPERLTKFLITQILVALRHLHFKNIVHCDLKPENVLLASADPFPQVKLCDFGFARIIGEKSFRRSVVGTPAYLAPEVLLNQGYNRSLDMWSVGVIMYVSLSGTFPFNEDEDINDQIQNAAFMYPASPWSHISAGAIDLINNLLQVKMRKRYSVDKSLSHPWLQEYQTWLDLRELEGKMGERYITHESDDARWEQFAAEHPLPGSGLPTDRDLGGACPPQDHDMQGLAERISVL
Method in brief: (§1)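 Relative binding comes from iTRAQ reporter signals after Kinobeads-style pull-down from HL60 lysate in the presence of 10 μM free compound versus solvent.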

[2] = biological target: PKN1 (Homo sapiens, UniProt Q16512); assay: Kinobeads competition binding, HL60 cell lysate; design: endogenous in cells; host or cells: HL60; conditions: 10 μM free compound
Chain of PKN1 (Q16512 whole entry): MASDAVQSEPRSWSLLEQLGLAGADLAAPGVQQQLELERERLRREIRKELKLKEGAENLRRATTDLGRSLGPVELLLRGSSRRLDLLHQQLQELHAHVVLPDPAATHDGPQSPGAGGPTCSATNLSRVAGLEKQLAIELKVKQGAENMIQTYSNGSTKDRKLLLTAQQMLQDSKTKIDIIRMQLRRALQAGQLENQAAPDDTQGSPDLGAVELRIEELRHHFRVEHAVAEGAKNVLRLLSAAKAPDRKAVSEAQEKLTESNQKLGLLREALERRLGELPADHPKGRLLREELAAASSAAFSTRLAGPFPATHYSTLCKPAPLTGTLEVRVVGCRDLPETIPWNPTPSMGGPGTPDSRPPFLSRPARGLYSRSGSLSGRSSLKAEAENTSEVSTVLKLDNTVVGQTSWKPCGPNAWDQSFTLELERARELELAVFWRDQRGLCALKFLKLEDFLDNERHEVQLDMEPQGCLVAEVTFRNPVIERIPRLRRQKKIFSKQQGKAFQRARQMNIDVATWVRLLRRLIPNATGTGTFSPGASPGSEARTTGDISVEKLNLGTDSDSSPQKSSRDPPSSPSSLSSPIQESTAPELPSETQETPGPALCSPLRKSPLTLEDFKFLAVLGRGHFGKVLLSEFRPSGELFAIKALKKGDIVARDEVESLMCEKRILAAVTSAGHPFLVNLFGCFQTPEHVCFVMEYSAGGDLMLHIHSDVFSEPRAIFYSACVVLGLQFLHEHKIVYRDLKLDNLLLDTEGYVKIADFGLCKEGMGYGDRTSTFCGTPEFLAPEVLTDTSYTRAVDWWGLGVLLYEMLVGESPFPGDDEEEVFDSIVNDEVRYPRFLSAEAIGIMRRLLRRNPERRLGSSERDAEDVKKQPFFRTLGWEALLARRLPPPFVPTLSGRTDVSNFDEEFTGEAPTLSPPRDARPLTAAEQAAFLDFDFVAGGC
Method in brief: as §1

## CS(=O)(=O)Nc1ccccc1Nc1nc(Nc2cccc(OCCN)c2)ncc1Cl [CZC31326, N-(2-(2-(3-(2-aminoethoxy)phenylamino)-5-chloropyrimidin-4-ylamino)phenyl)methanesulfonamide]
[1]
  inhibition at 10 µM: 97.9%
[2]
  inhibition at 10 µM: 97%
